Assay results reported in patent US20220218852A1, “NOVEL RADIOLABELLED CXCR4-TARGETING COMPOUNDS FOR DIAGNOSIS AND THERAPY” (PROVINCIAL HEALTH SERVICES AUTHORITY, priority 2019, published 2022).
Where two headings read alike, the source gives them in different places. Positions of bridges follow the written chain, without caps; N, C: chain ends. Non-standard residues stand in square brackets, D forms with d. Residues, ends and D or L forms follow the SMILES beside them. Groups on a side chain read outwards from the residue. *: point of attachment. X1 = O=C(O)CC[C@H](NC(=O)CN1CCN(CC(=O)O)CCN(CC(=O)O)CCN(CC(=O)O)CC1)C(=O)N[C@@H](CCCCNC(=O)CNC(=O)CCCc1ccc(F)cc1)C(=O)*; X2 = Cc1ccc(CCCC(=O)NCC(=O)NCCCC[C@H](NC(=O)[C@H](CCC(=O)O)NC(=O)CN2CCN(CC(=O)O)CCN(CC(=O)O)CCN(CC(=O)O)CC2)C(=O)*)cc1; 2Nal = N[C@@H](Cc1ccc2ccccc2c1)C(=O)O; Lys(iPr) = CC(C)NCCCC[C@H](N)C(=O)O

Columns and labels:
[1] = system: Daudi Burkitt's lymphoma xenografts; assay: Biodistribution in Daudi tumor-bearing mice; type: in vivo; details: for Ratio Tumor: Blood / Ratio Tumor: Bone / Ratio Tumor: Liver / Ratio Tumor: Lung / Ratio Tumor: Muscle / Ratio Tumor: Spleen: Daudi tumor-bearing mice, 3 h; for Ratio Tumour:Blood / Ratio Tumour:Bone / Ratio Tumour:Liver / Ratio Tumour:Lung / Ratio Tumour:Muscle / Ratio Tumour:Spleen: Daudi xenograft bearing mice, 1 h
Method: (§1) For Daudi, Z138, GRANTA519 and Jeko1 xenografts, male NOD.Cg-Rag1^tm1MomII2rg^tm1Wjl/SzJ (NRG) mice were subcutaneously inoculated on the left flank with 5×10^6 cells (100 μL; 1:1 ratio of PBS/Matrigel) and tumors were grown to a size of 200-500 mm^3. For PC-3 xenografts, male NOD.Cg-Rag1^tm1MomII2rg^tm1Wjl/SzJ (NRG) mice were subcutaneously inoculated on the left flank with 5×10^6 PC-3 cells (100 μL; 1:1 ratio of PBS/Matrigel) and tumors were grown to a size of 200-400 mm^3.
(§2) The mice were euthanized via CO2 inhalation while anesthetized with isoflurane. Tissues were harvested, washed in PBS, blotted dry, weighed, and measured on a Hidex AMG Automatic Gamma Counter.

[2] = Biodistribution in Daudi tumor-bearing mice; type: in vivo; details: male, NOD.Cg-Rag1^tm1MomII2rg^tm1Wjl/SzJ (NRG), mouse, iv, total radioactivity; for tissue uptake at 3 h: Daudi tumor-bearing mice; for tissue uptake at 1 h: Daudi xenograft bearing mice
Method: as §1, §2

[3] = Daudi tumor, read-out: Biodistribution Daudi (tumor)
[4] = Daudi tumour, read-out: Biodistribution Daudi (tumour)
[5] = adrenals, read-out: Biodistribution Adrenals
[6] = blood, read-out: Biodistribution Blood
[7] = bone, read-out: Biodistribution Bone
[8] = brain, read-out: Biodistribution Brain
[9] = fat, read-out: Biodistribution Fat
[10] = heart, read-out: Biodistribution Heart
[11] = intestine, read-out: Biodistribution Intestine
[12] = kidney, read-out: Biodistribution Kidney
[13] = liver, read-out: Biodistribution Liver
[14] = lung, read-out: Biodistribution Lung
[15] = muscle, read-out: Biodistribution Muscle
[16] = pancreas, read-out: Biodistribution Pancreas
[17] = spleen, read-out: Biodistribution Spleen
[18] = stomach, read-out: Biodistribution Stomach
[19] = testes, read-out: Biodistribution Testes

CC(C)NCCCC[C@@H]1NC(=O)[C@H](Cc2ccc(O)cc2)NC(=O)[C@H](Cc2ccccc2)NC(=O)CC[C@H](C(=O)N[C@@H](CCCCNC(C)C)C(=O)N[C@@H](CCCCNC(=O)[C@H](CCC(=O)O)NC(=O)[C@H](CCCCNC(=O)CNC(=O)CCCc2ccc(F)cc2)NC(=O)[C@H](CCC(=O)O)NC(=O)CN2CCN(CC(=O)O)CCN(CC(=O)O)CCN(CC(=O)O)CC2)C(N)=O)NC(=O)CNC(=O)[C@H](Cc2ccc3ccccc3c2)NC(=O)[C@@H](CCCNC(=N)N)NC1=O [[^68Ga]Ga-BL27, metal not drawn] (FY[Lys(iPr)][dR][2Nal]G[dE][Lys(iPr)]K([Glu-X1])-NH2; lactam N-7)
Ratio Tumor: Blood [1]: 10.85 | Ratio Tumor: Bone [1]: 38.31 | Ratio Tumor: Liver [1]: 3.91 | Ratio Tumor: Lung [1]: 5.59 | Ratio Tumor: Muscle [1]: 83.68 | Ratio Tumor: Spleen [1]: 10.08 | Ratio Tumour:Blood [1]: 1.99 | Ratio Tumour:Bone [1]: 13.68 | Ratio Tumour:Liver [1]: 3.46 | Ratio Tumour:Lung [1]: 1.27 | Ratio Tumour:Muscle [1]: 21.47 | Ratio Tumour:Spleen [1]: 3.37 | tissue uptake at 3 h [2, 3]: 10.4 %ID/g | tissue uptake at 1 h [2, 4]: 8.78 %ID/g | tissue uptake at 3 h [2, 5]: 0.58 %ID/g | tissue uptake at 1 h [2, 5]: 1.66 %ID/g | tissue uptake at 3 h [2, 6]: 0.95 %ID/g | tissue uptake at 1 h [2, 6]: 4.6 %ID/g | tissue uptake at 3 h [2, 7]: 0.27 %ID/g | tissue uptake at 1 h [2, 7]: 0.66 %ID/g | tissue uptake at 3 h [2, 8]: 0.03 %ID/g | tissue uptake at 1 h [2, 8]: 0.07 %ID/g | tissue uptake at 3 h [2, 9]: 0.09 %ID/g | tissue uptake at 1 h [2, 9]: 0.35 %ID/g | tissue uptake at 3 h [2, 10]: 0.32 %ID/g | tissue uptake at 1 h [2, 10]: 1.27 %ID/g | tissue uptake at 3 h [2, 11]: 0.36 %ID/g | tissue uptake at 1 h [2, 11]: 0.85 %ID/g | tissue uptake at 3 h [2, 12]: 4.77 %ID/g | tissue uptake at 1 h [2, 12]: 6.21 %ID/g | tissue uptake at 3 h [2, 13]: 2.64 %ID/g | tissue uptake at 1 h [2, 13]: 2.61 %ID/g | tissue uptake at 3 h [2, 14]: 2.1 %ID/g | tissue uptake at 1 h [2, 14]: 7.23 %ID/g | tissue uptake at 3 h [2, 15]: 0.13 %ID/g | tissue uptake at 1 h [2, 15]: 0.43 %ID/g | tissue uptake at 3 h [2, 16]: 0.26 %ID/g | tissue uptake at 1 h [2, 16]: 0.62 %ID/g | tissue uptake at 3 h [2, 17]: 1.06 %ID/g | tissue uptake at 1 h [2, 17]: 2.82 %ID/g | tissue uptake at 3 h [2, 18]: 0.12 %ID/g | tissue uptake at 1 h [2, 18]: 0.19 %ID/g | tissue uptake at 3 h [2, 19]: 0.31 %ID/g | tissue uptake at 1 h [2, 19]: 0.8 %ID/g

Cc1ccc(CCCC(=O)NCC(=O)NCCCC[C@H](NC(=O)[C@H](CCC(=O)O)NC(=O)CN2CCN(CC(=O)O)CCN(CC(=O)O)CCN(CC(=O)O)CC2)C(=O)N[C@@H](CCC(=O)O)C(=O)NCCCC[C@H](NC(=O)[C@H](CCCCNC(C)C)NC(=O)[C@H]2CCC(=O)N[C@@H](Cc3ccccc3)C(=O)N[C@@H](Cc3ccc(O)cc3)C(=O)N[C@@H](CCCCNC(C)C)C(=O)N[C@H](CCCNC(=N)N)C(=O)N[C@@H](Cc3ccc4ccccc4c3)C(=O)NCC(=O)N2)C(N)=O)cc1 [[^68Ga]Ga-BL28, metal not drawn] (FY[Lys(iPr)][dR][2Nal]G[dE][Lys(iPr)]K([Glu-X2])-NH2; lactam N-7)
Ratio Tumor: Blood [1]: 0.68 | Ratio Tumor: Bone [1]: 8.55 | Ratio Tumor: Liver [1]: 2.71 | Ratio Tumor: Lung [1]: 1.46 | Ratio Tumor: Muscle [1]: 10.49 | Ratio Tumor: Spleen [1]: 3.38 | Ratio Tumour:Blood [1]: 0.31 | Ratio Tumour:Bone [1]: 4.12 | Ratio Tumour:Liver [1]: 1.59 | Ratio Tumour:Lung [1]: 0.65 | Ratio Tumour:Muscle [1]: 4.82 | Ratio Tumour:Spleen [1]: 2.08 | tissue uptake at 3 h [2, 3]: 7.82 %ID/g | tissue uptake at 1 h [2, 4]: 4.59 %ID/g | tissue uptake at 3 h [2, 5]: 2.46 %ID/g | tissue uptake at 1 h [2, 5]: 2.53 %ID/g | tissue uptake at 3 h [2, 6]: 11.6 %ID/g | tissue uptake at 1 h [2, 6]: 14.7 %ID/g | tissue uptake at 3 h [2, 7]: 0.94 %ID/g | tissue uptake at 1 h [2, 7]: 1.14 %ID/g | tissue uptake at 3 h [2, 8]: 0.17 %ID/g | tissue uptake at 1 h [2, 8]: 0.19 %ID/g | tissue uptake at 3 h [2, 9]: 0.56 %ID/g | tissue uptake at 1 h [2, 9]: 0.64 %ID/g | tissue uptake at 3 h [2, 10]: 2.29 %ID/g | tissue uptake at 1 h [2, 10]: 3.21 %ID/g | tissue uptake at 3 h [2, 11]: 1 %ID/g | tissue uptake at 1 h [2, 11]: 1.21 %ID/g | tissue uptake at 3 h [2, 12]: 4.76 %ID/g | tissue uptake at 1 h [2, 12]: 5.41 %ID/g | tissue uptake at 3 h [2, 13]: 2.92 %ID/g | tissue uptake at 1 h [2, 13]: 2.92 %ID/g | tissue uptake at 3 h [2, 14]: 5.35 %ID/g | tissue uptake at 1 h [2, 14]: 7.11 %ID/g | tissue uptake at 3 h [2, 15]: 0.76 %ID/g | tissue uptake at 1 h [2, 15]: 0.96 %ID/g | tissue uptake at 3 h [2, 16]: 1.21 %ID/g | tissue uptake at 1 h [2, 16]: 1.49 %ID/g | tissue uptake at 3 h [2, 17]: 2.34 %ID/g | tissue uptake at 1 h [2, 17]: 2.21 %ID/g | tissue uptake at 3 h [2, 18]: 0.38 %ID/g | tissue uptake at 1 h [2, 18]: 0.47 %ID/g | tissue uptake at 3 h [2, 19]: 2.05 %ID/g | tissue uptake at 1 h [2, 19]: 1.73 %ID/g
